{"source": "patent US20150290231A1", "about": "“COMPOSITION FOR INHIBITING CELLULAR SENESCENCE COMPRISING QUERCETIN-3-O-beta-D-GLUCURONIDE” (INDUSTRY-ACADEMIC COOPERATION FOUNDATION, YEUNGNAM …, priority 2012, published 2015)", "key": {"[1]": {"system": "human dermal fibroblasts (HDFs)", "assay": "Adriamycin-induced cellular senescence, SA-β-gal activity staining, HDFs", "type": "cell-based", "conditions": "3 days", "method": "(§1) FIG. 1 represents the effect of quercetin-3-O-β-D-glucuronide (Q3GA) on adriamycin-induced cellular senescence in human dermal fibroblasts (HDFs). Cells treated with 500 nM adriamycin for 4 h were seeded at 500 cells/well in 96 well plates. After treatment with increasing concentrations of Q3GA, cells were incubated for 3 days and cellular senescence assessed by SA-β-gal activity staining. SA-β-gal activity staining (Left) and percentages of SA-β-gal positive cells in HDFs (Right). Representative SA-β-gal staining pictures of 3 independent experiments are shown. Values are means±SDs from 3 independent experiments measured in triplicates. C, control; D, dimethyl sulfoxide; N, 5 mM N-acetylcysteine; R, 500 nM rapamycin. *p<0.05 or **p<0.01 vs DMSO.\n(§2) HDFs in DMEM with 10% FBS and 1% antibiotics (penicillin 10,000 unit/mL and streptomycin […]) were seeded at 1×10^5 cells per 100 mm culture plate and incubated at 37° C. in 5% CO2 humidified air. When subcultures reached 80-90% confluence, serial passaging was performed by trypsinization. HUVECs in EGM-2 media were cultured under the same conditions. The number of population doublings (PDs) was monitored for further experiments. PD was calculated using the geometric equation: PD=log 2F/log 2I (F, final cell number; I, initial cell number). HDFs in PD<35 and HUVECs in PD<30 were used for adriamycin-induced cellular senescence. […]"}, "[2]": {"system": "human umbilical vein endothelial cells (HUVECs)", "assay": "Adriamycin-induced cellular senescence, SA-β-gal activity staining, HUVECs", "type": "cell-based", "conditions": "3 days", "method": "as §1, with “FIG. 2” for “FIG. 1”, “human umbilical vein endothelial cells (HUVECs).” for “human dermal fibroblasts (HDFs).”, “at 1,000” for “at 500”, “in HUVECs” for “in HDFs”\nas §2, with “number).” for “number). HDFs in PD<35 and HUVECs in PD<30 were used for adriamycin-induced cellular senescence.”"}, "p53 [3]": {"system": "p53", "assay": "Western blot of p53 in adriamycin-treated HDFs", "type": "cell-based, human", "conditions": "Q3GA 1 h prior to adriamycin 500 nM 4 h, concentration-dependent", "method": "(§3) FIG. 3 represents the effect of Q3GA on the expression levels of p53, pS6K, and p21 proteins in HDFs and HUVECs treated with adriamycin. Cells were treated with the indicated concentrations of Q3GA for 1 h prior to adriamycin treatment and incubated for 4 h. Proteins from cells were extracted and separated. The expression levels of each protein were analyzed by Western blotting. Representative data of 3 independent experiments are shown. NT, not treated with adrimycin; ADR, adriamcyin; C, control; D, dimethyl sulfoxide; N, 5 mM N-acetylcysteine; R, 500 nM rapamycin.\n(§4) Each cells were divided into a 60 mm culture dish to the cell number of 1×10^5, and then cultured at 37° C. in a 5% CO2 incubator. […] The amount of the protein in the solution was quantified by bicinchoninic acid (BCA) method (Pierce Biotechnology Inc., Rockford Ill., USA) by using bovine serum albumin as a standard protein.\n(§5) Protein (30 μg) was separated by being electrophoresed through a 10% SDS-polyacrylamide gel. […] The membrane was washed five times with TTBS for every 5 min, and then the amounts of p53, p21 and pS6 were measured by using an enhanced chemiluminescence solution. The amount of the specific protein reacted with each antibody was measured by using a LAS-3000 imaging system (Fujifilm Corp., Stanford, Conn., USA). […]"}, "p21 [4]": {"system": "p21", "assay": "Western blot of p21 in adriamycin-treated HDFs", "type": "cell-based, human", "conditions": "Q3GA 1 h prior to adriamycin 500 nM 4 h, concentration-dependent", "method": "as §3, §4, §5"}, "p53 [5]": {"system": "p53", "assay": "Western blot of p53 in adriamycin-treated HUVECs", "type": "cell-based, human", "conditions": "Q3GA 1 h prior to adriamycin 500 nM 4 h, concentration-dependent", "method": "as §3, §4, §5"}, "p21 [6]": {"system": "p21", "assay": "Western blot of p21 in adriamycin-treated HUVECs", "type": "cell-based, human", "conditions": "Q3GA 1 h prior to adriamycin 500 nM 4 h, concentration-dependent", "method": "as §3, §4, §5"}, "[7]": {"system": "human dermal fibroblasts (HDFs)", "assay": "Intracellular ROS (DCF fluorescence, flow cytometry) in adriamycin-treated HDFs", "type": "cell-based", "conditions": "Q3GA 10 μg/ml, 3 days", "method": "(§6) FIG. 4 represents the effect of Q3GA on intracellular ROS levels increased by adriamycin treatment in HDFs. Young cells (1.5×10^5) treated with or without adrimcyin were seeded in 60 mm culture dishes and incubated for 24 h. Following treatment of cells with 10 µg/mL of Q3GA, 0.5% DMSO, 5 mM NAC, or 500 nM rapamcyin for 3 days, cells were loaded with 250 µM H2DCFDA for 20 min. The DCF fluorescence intensity of each population of 10,000 cells was measured by flow cytometry. Representative data from three independent experiments are shown. Median fluorescence intensities were obtained and compared. Values are means±SDs from 3 independent experiments. NT, not treated with adrimycin; ADR, adriamcyin; C, control; D, dimethyl sulfoxide; N, 5 mM N-acetylcysteine; R, 500 nM rapamycin. *p<0.05 vs DMSO.\n(§7) Each cells were divided into a 100 mm culture dish to the cell number of 1.5×10^5, and then cultured at 37° C. in a 5% CO2 incubator for 3 days. The cells were washed two times with DMEM medium containing antibiotics, and then adriamycin 500 nM was treated thereto for 4 hours. The cells were separated by treating trypsin-EDTA solution (2.5%), and then divided again into a 60 mm culture dish to the cell number of 1×10^5 followed by culturing at 37° C. in a 5% CO2 incubator. […] ROS was measured by using BD FACS Canto II flow cytometry (BD Biosciences, San Jose, Calif.)."}, "[8]": {"system": "human umbilical vein endothelial cells (HUVECs)", "assay": "Intracellular ROS (DCF fluorescence, flow cytometry) in adriamycin-treated HUVECs", "type": "cell-based", "conditions": "Q3GA 10 μg/ml, 3 days", "method": "as §6, with “FIG. 5” for “FIG. 4”, “in HUVECs.” for “in HDFs.”\nas §7"}, "[9]": {"system": "human dermal fibroblasts (HDFs)", "assay": "Replicative senescence, SA-β-gal activity staining, old HDFs", "type": "cell-based", "conditions": "old HDFs (PD>75); increasing Q3GA concentration; 3 days; concentration-dependent", "method": "(§8) FIG. 6 represents the effect of Q3GA on replicative senescence of HDFs. Old cells (3×10^4/well) were seeded in 6 well plates and incubated with or without 10 µg/mL of Q3GA for 3 days. Cellular senescence was assessed by SA-β-gal activity staining. Representative pictures of 3 independent experiments are shown. Percentages of SA-β-gal positive cells were measured. Values are means±SDs from 3 independent experiments. O, old cells; D, dimethyl sulfoxide; N, 5 mM N-acetylcysteine; R, 500 nM rapamycin. *p<0.05 or **p<0.05 vs DMSO.\n(§9) HDFs in DMEM with 10% FBS and 1% antibiotics (penicillin 10,000 unit/mL and streptomycin […]) were seeded at 1×10^5 cells per 100 mm culture plate and incubated at 37° C. in 5% CO2 humidified air. When subcultures reached 80-90% confluence, serial passaging was performed by trypsinization. HUVECs in EGM-2 media were cultured under the same conditions. The number of population doublings (PDs) was monitored for further experiments. PD was calculated using the geometric equation: PD=log 2F/log 2I (F, final cell number; I, initial cell number). HDFs in PD<35 and HUVECs in PD<30 were used for adriamycin-induced cellular senescence. HDFs in PD>75 and HUVECs in PD>50 were used as old cells under replicative senescence.\nThe effect of single component on cellular senescence was examined by SA-β-gal activity staining. […]"}, "[10]": {"system": "human umbilical vein endothelial cells (HUVECs)", "assay": "Replicative senescence, SA-β-gal activity staining, old HUVECs", "type": "cell-based", "conditions": "old HUVECs (PD>50); increasing Q3GA concentration; 3 days; concentration-dependent", "method": "as §8, with “7” for “6”, “HUVECs. […]” for “HDFs. Old cells (3×10^4/well) were seeded in 6 well plates and incubated with or without 10 µg/mL of Q3GA for 3 days.”\nas §9\nThe effect of single component on cellular senescence was examined by SA-β-gal activity staining. Each single component was treated in a 24-well culture plate or a 12-well culture plate for 3 days, and then the cells were washed with phosphate buffer. […]"}, "[11]": {"conditions": "Q3GA 10 μg/ml, adriamycin 500 nM 4 h"}, "[12]": {"conditions": "increasing concentrations of Q3GA"}}, "data": [{"smiles": "O=C(O)[C@H]1O[C@@H](Oc2c(-c3ccc(O)c(O)c3)oc3cc(O)cc(O)c3c2=O)[C@H](O)[C@@H](O)[C@@H]1O", "note": "[Q3GA, quercetin-3-O-β-D-glucuronide]", "values": [{"measurement": "SA-β-gal activity staining increased by adriamycin", "setting": "[1]; [11]", "value": "reduced by Q3GA treatment"}, {"measurement": "SA-β-gal activity increased by adriamycin, concentration dependence", "setting": "[1]; [12]", "value": "reduced as Q3GA concentration was increased"}, {"measurement": "SA-β-gal activity staining increased by adriamycin", "setting": "[2]; [11]", "value": "reduced by Q3GA treatment"}, {"measurement": "SA-β-gal activity increased by adriamycin, concentration dependence", "setting": "[2]; [12]", "value": "reduced as Q3GA concentration was increased"}, {"measurement": "level of p53 protein increased by adriamycin", "setting": "p53 [3]", "value": "reduced"}, {"measurement": "level of p21 protein increased by adriamycin", "setting": "p21 [4]", "value": "reduced"}, {"measurement": "level of p53 protein increased by adriamycin", "setting": "p53 [5]", "value": "reduced"}, {"measurement": "level of p21 protein increased by adriamycin", "setting": "p21 [6]", "value": "reduced"}, {"measurement": "intracellular ROS levels augmented by adriamycin (DCF fluorescence intensity)", "setting": "[7]", "value": "decreased intracellular ROS levels"}, {"measurement": "intracellular ROS levels augmented by adriamycin (DCF fluorescence intensity)", "setting": "[8]", "value": "decreased intracellular ROS levels"}, {"measurement": "SA-β-gal activity under replicative senescence", "setting": "[9]", "value": "decreased SA-β-gal activity"}, {"measurement": "SA-β-gal activity under replicative senescence", "setting": "[10]", "value": "decreased SA-β-gal activity"}]}]}
